# Key:
# CYP3A4 [1] = molecular target: T1, CYP3A4 (Homo sapiens, UniProt P08684); assay: Enzyme kinetics of metabolite formation in cDNA-expressed CYP3A4 supersomes; type: in vitro ADME
# T1 construct: purchased Corning Life Sciences
# Method: (§1) To calculate the enzyme kinetic parameters for the M1 and M2 formation from DWP16001, DWP16001 (final concentrations, 1–200 μM) was incubated with NADPH-generating system, pooled human liver microsomes (0.25 mg/mL), or human cDNA-expressed CYP3A4 or CYP2C19 supersomes (10 pmol) at 37 °C for 30 min in triplicate. Reactions were stopped by addition of 400 μL of ice-cold ketoconazole (200 ng/mL) in acetonitrile. Following vortex-mixing and centrifugation (15,000× g, 8 min, 4 °C), 75 μL aliquots of the supernatant were diluted with 75 µL of 30% acetonitrile; 5 μL aliquots were injected into an LC−MS/MS system.
# (§2) Apparent kinetic parameters (Km, Vmax and n) for the formation of M1, M2, and M3 from DWP16001 by human liver microsomes, CYP3A4, or CYP2C19 were calculated as follows: the unweighted formation rates of M1, M2, and M3 over a range of DWP16001 concentrations were fitted to the Hill equation model [V = Vmax × S^n/(Km^n + S^n)] or the single enzyme model [V = Vmax × S/(Km + S)] using Enzyme Kinetics software (version 1.1 SPSS Inc., Chicago, IL, USA). In the above equations, V means the reaction velocity of the formation of M1, M2, and M3 at given concentration [S] of DWP16001, Vmax means the maximum reaction velocity, n means the Hill constant, and Km means the DWP16001 concentration at which the reaction velocity is 50% of Vmax.
# CYP3A4 [2] = molecular target: T1, CYP3A4; assay: Immunoinhibition of DWP16001 metabolism by anti-CYP3A4 antibody in human liver microsomes; type: in vitro ADME; settings: 5 μM DWP16001, pooled human liver microsomes
# Method: DWP16001 (5 μM) in human liver microsomes was incubated with varying concentrations of antibody specific for human CYP3A4 (anti-CYP3A4 antibody). Prior to incubation, human liver microsomes were pretreated with anti-CYP3A4 antibody for 15 min on ice. Reactions were initiated by addition of an aliquot of NADPH-generating system; mixtures were incubated for 60 min at 37 °C. Reactions were terminated by addition of 100 µL of ice-cold ketoconazole (200 ng/mL) in acetonitrile; following centrifugation at 15,000× g for 10 min at 4 °C. Aliquots of supernatant (150 µL) was evaporated using a vacuum concentrator and re-dissolved in 100 µL of 20% methanol; 5 µL aliquots were injected into an LC-MS/MS system.
# SGLT2 = test system: SGLT2; set-up: method as in PMID 32183468; settings: read-out: IC50 (SGLT2 inhibition); cited from earlier work
# UGT1A4 = molecular target: T2, UGT1A4 (Homo sapiens, UniProt P22310); assay: UGT screening, cDNA-expressed UGT1A4; type: in vitro ADME
# T2 construct: purchased Corning Life Sciences
# T2 sequence (P22310 29-534): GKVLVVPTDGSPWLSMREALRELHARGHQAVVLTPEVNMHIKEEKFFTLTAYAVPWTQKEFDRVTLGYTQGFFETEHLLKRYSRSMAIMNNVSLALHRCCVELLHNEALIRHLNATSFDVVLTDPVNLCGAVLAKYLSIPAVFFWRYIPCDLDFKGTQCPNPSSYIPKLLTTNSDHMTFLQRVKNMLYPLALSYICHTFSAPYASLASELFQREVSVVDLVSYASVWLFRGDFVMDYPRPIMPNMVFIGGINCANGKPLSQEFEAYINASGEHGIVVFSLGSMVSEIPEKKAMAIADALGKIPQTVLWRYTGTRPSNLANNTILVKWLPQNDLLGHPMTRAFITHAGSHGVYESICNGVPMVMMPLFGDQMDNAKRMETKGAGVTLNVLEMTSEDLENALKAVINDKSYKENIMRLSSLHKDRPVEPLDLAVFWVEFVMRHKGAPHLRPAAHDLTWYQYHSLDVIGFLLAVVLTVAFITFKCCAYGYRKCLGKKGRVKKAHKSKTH
# Method: (§3) To screen for UGT enzymes responsible for glucuronidation of DWP16001, 100 μL of reaction mixtures containing 13 human cDNA-expressed UGT enzymes (1A1, 1A3, 1A4, 1A6, 1A7, 1A8, 1A9, 1A10, 2B4, 2B7, 2B10, 2B15, and 2B17) at 0.1 mg protein/mL, 5 mM UDPGA, 0.025 mg/mL alamethicin, and 25 μM DWP16001 or M1 in 50 mM Tris buffer (pH 7.4) were incubated at 37 °C for 30 min in triplicate. Reactions were stopped by adding 100 μL of ketoconazole (internal standard, 200 ng/mL) in acetonitrile, followed by vortex-mixing and centrifugation (15,000× g, 8 min, 4 °C). The supernatant (75 μL) was diluted with equal volume of 30% acetonitrile and aliquots (5 μL) were injected into an LC-MS/MS system.
# UGT2B7 = molecular target: T3, UGT2B7 (Homo sapiens, UniProt P16662); assay: UGT screening, cDNA-expressed UGT2B7; type: in vitro ADME
# T3 construct: purchased Corning Life Sciences
# T3 sequence (P16662 24-529): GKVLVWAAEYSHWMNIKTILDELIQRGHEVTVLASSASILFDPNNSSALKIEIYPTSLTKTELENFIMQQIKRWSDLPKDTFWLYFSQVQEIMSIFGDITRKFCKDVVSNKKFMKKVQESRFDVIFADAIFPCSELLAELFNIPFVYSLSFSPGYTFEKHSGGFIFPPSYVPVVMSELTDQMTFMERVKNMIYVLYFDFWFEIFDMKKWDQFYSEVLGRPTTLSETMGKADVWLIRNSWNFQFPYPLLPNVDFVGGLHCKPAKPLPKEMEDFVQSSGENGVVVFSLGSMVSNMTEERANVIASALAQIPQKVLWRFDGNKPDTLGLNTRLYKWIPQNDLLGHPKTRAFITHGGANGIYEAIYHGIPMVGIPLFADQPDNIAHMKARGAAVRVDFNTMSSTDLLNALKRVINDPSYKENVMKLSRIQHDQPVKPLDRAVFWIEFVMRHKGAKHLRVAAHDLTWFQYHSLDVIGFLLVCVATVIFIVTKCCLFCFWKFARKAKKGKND
# Method: as §3
# CYP2C19 = molecular target: T4, CYP2C19 (Homo sapiens, UniProt P33261); assay: Enzyme kinetics of metabolite formation in cDNA-expressed CYP2C19 supersomes; type: in vitro ADME
# T4 construct: purchased Corning Life Sciences
# Method: as §1, §2
# [3] = CYP2C19 supersomes, kinetic model fitted
# T1 sequence (P08684 whole entry): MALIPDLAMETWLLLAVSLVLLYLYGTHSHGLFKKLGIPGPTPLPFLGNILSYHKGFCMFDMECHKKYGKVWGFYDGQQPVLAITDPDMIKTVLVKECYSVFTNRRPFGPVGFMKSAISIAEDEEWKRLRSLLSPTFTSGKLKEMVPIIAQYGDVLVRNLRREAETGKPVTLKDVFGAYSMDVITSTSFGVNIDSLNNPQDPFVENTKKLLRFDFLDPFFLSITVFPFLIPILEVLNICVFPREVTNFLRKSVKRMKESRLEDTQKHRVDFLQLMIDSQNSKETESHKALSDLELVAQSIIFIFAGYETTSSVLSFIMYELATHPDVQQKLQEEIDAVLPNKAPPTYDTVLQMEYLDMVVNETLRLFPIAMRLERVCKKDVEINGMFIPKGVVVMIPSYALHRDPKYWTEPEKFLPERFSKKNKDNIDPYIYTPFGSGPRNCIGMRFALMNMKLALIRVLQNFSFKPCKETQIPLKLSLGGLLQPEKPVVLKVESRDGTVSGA
# T4 sequence (P33261 whole entry): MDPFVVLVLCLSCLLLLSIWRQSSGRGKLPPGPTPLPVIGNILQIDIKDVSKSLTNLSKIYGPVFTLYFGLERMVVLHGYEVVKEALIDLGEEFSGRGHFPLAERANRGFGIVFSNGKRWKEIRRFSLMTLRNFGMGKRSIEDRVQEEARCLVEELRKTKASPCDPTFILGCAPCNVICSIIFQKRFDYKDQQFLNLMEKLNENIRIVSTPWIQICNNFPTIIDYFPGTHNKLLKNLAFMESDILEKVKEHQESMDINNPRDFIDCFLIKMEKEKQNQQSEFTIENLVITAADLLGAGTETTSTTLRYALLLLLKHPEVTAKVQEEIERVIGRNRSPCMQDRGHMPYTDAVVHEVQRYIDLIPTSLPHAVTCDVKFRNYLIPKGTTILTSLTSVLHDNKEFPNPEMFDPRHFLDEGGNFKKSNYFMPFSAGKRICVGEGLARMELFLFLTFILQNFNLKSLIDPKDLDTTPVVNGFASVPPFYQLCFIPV
compound,measurement,setting,value
"OC[C@H]1O[C@@H](c2cc(Cc3ccc(C4CC4)cc3)c(Cl)c3c2CCO3)[C@H](O)[C@@H](O)[C@@H]1O [DWP16001, (2S,3R,4R,5S,6R)-2-(7-chloro-6-(4-cyclopropylbenzyl)-2,3-dihydrobenzofuran-4-yl)-6-(hydroxymethyl)tetrahydro-2H-pyran-3,4,5-triol]",M3 formation kinetic model,CYP3A4 [1],single enzyme kinetics
same,M1 Formation Mode,CYP3A4 [1]; kinetic model fitted,Hill
same,M2 Formation Mode,CYP3A4 [1]; kinetic model fitted,Hill
same,Formation of M1 and M2 from DWP16001 with increasing anti-CYP3A4 antibody,CYP3A4 [2],decreased
same,IC50,SGLT2,0.8 ± 0.3 nM
same,Substrate of UGT1A4,UGT1A4,substrate
same,Substrate of UGT2B7,UGT2B7,substrate
same,M3 formation from DWP16001 in enzyme kinetic analysis,CYP2C19; CYP2C19,not detected
same,M1 Formation Mode,CYP2C19; [3],Single enzyme
same,M2 Formation Mode,CYP2C19; [3],Hill

# Reference: paper PMC7558535, “In Vitro Metabolism of DWP16001, a Novel Sodium-Glucose Cotransporter 2 Inhibitor, in Human and Animal Hepatocytes” (Pharmaceutics, 2020)
